Consider five compounds from ChEMBL document CHEMBL1201862, “PubChem BioAssay data set” (2004).

SMILES strings stand for the structures. Activity calls are given as the source filed them.

One experiment concerns the target Hexokinase-1 (Homo sapiens, UniProt P19367). Kind of experiment: hexokinase 1 activators, dose response, selectivity assay for HKDC1 activator project, biochemical (AID 504762). It is filed as functional.
Experiment [1] has as its target Peroxisome proliferator-activated receptor gamma/Nuclear receptor coactivator 1 (Homo sapiens, UniProt P37231). It is filed as functional.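 Also: agonist potency as compounds enhance coactivator SRC-1 recruitment to PPARgamma.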
Experiment [2] can be described thus: Luminescence Cell-Based Dose Confirmation HTS to Identify Activators of 5'UTR Stem-Loop Driven Alpha-Synuclein mRNA Translation in H4 Neuroglioblastoma Cells. [Related pubchem assays: 1829 (Project Summary), 1814 (Primary HTS)]. The experiment is classed as functional.
Experiment [3] addresses Eukaryotic translation initiation factor 4E (Mus musculus, UniProt P63073). The experiment can be described thus: eIF4E–eIF4G protein interaction inhibitors, dose response, biochemical, TR-FRET (AID 855).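 Also: potency for disrupting eIF4E binding to eIF4GI seen as loss of FRET.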 It is filed as functional. In general terms: TR-FRET usually uses a lanthanide donor and a delayed reading to cut background.
A further experiment deals with HEK293. The experiment can be described thus: NOD2 signaling inhibitors in MDP-stimulated cells, cell-based, uHTS, luminescence (AID 2001). As to conditions: Homo sapiens. It is filed as functional.
Experiment [4] deals with T1, Histone-lysine N-methyltransferase NSD2 (Homo sapiens, UniProt O96028).
T1 sequence (O96028 whole entry): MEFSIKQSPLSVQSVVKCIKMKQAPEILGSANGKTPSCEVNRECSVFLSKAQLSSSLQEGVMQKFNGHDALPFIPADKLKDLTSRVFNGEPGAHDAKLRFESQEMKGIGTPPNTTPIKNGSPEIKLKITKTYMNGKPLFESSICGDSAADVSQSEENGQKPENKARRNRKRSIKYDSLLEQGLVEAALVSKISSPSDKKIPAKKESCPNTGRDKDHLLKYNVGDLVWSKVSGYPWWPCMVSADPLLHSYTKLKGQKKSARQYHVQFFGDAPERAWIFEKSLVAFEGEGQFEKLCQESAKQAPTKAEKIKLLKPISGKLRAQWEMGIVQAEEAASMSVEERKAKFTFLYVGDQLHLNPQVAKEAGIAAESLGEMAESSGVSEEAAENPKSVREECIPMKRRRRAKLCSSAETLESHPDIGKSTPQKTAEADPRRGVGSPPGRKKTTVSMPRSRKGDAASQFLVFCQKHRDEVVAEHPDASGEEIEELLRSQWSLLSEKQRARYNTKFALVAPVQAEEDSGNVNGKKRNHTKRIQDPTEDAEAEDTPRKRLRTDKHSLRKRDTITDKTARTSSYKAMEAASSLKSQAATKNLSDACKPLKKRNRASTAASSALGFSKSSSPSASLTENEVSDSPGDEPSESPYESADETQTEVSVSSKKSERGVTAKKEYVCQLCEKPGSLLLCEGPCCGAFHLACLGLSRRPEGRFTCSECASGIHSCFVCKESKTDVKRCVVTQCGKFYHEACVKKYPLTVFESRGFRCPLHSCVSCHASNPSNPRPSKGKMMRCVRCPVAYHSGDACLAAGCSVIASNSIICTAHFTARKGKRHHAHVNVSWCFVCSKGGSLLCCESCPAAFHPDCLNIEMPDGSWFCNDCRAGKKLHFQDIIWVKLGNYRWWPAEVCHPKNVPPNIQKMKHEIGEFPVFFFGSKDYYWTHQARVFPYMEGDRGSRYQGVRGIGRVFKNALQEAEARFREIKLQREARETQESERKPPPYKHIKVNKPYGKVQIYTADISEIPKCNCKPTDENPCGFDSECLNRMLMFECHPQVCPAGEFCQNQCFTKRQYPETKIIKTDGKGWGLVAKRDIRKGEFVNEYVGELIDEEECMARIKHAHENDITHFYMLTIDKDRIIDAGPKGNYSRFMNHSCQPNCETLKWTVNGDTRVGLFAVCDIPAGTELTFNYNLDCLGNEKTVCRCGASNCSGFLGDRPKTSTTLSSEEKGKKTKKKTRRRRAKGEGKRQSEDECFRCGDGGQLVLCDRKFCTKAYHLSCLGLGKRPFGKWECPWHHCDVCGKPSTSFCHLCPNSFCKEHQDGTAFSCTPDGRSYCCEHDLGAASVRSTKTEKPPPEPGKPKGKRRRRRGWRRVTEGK
The experiment is classed as biochemical.

For experiment [5], the target named is Mitogen-activated protein kinase 8 (Homo sapiens, UniProt P45983). The experiment is classed as functional.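 Also: value comes from one member of a kinome-wide kinase profiling panel.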
Experiment [6] deals with Tyrosine-protein kinase BTK (Homo sapiens, UniProt Q06187). The experiment is classed as functional.
In experiment [7] the target is Casein kinase II subunit alpha (Homo sapiens, UniProt P68400). It is filed as functional.
Experiment [8] has as its target Serine/threonine-protein kinase PAK 1 (Homo sapiens, UniProt Q13153). It is filed as functional.
The target in experiment [9] is Fibroblast growth factor receptor 1 (Homo sapiens, UniProt P11362). The experiment is classed as functional.
The target in experiment [10] is Ribosomal protein S6 kinase alpha-5 (Homo sapiens, UniProt O75582). The experiment is classed as functional.
A further experiment deals with Insulin receptor (Homo sapiens, UniProt P06213). It is filed as functional.
Experiment [11] deals with Serine/threonine-protein kinase Chk1 (Homo sapiens, UniProt O14757). It is filed as functional.
The target in another experiment is Ephrin type-A receptor 2 (Homo sapiens, UniProt P29317). It is filed as functional.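 Also: EPHA2 tested as one member of a kinome-wide kinase panel.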
The target of another experiment is Misshapen-like kinase 1 (Homo sapiens, UniProt Q8N4C8). The experiment is classed as functional.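 Also: kinome panel screen with MINK as the panel member.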
Sequence of Misshapen-like kinase 1 (Q8N4C8 whole entry): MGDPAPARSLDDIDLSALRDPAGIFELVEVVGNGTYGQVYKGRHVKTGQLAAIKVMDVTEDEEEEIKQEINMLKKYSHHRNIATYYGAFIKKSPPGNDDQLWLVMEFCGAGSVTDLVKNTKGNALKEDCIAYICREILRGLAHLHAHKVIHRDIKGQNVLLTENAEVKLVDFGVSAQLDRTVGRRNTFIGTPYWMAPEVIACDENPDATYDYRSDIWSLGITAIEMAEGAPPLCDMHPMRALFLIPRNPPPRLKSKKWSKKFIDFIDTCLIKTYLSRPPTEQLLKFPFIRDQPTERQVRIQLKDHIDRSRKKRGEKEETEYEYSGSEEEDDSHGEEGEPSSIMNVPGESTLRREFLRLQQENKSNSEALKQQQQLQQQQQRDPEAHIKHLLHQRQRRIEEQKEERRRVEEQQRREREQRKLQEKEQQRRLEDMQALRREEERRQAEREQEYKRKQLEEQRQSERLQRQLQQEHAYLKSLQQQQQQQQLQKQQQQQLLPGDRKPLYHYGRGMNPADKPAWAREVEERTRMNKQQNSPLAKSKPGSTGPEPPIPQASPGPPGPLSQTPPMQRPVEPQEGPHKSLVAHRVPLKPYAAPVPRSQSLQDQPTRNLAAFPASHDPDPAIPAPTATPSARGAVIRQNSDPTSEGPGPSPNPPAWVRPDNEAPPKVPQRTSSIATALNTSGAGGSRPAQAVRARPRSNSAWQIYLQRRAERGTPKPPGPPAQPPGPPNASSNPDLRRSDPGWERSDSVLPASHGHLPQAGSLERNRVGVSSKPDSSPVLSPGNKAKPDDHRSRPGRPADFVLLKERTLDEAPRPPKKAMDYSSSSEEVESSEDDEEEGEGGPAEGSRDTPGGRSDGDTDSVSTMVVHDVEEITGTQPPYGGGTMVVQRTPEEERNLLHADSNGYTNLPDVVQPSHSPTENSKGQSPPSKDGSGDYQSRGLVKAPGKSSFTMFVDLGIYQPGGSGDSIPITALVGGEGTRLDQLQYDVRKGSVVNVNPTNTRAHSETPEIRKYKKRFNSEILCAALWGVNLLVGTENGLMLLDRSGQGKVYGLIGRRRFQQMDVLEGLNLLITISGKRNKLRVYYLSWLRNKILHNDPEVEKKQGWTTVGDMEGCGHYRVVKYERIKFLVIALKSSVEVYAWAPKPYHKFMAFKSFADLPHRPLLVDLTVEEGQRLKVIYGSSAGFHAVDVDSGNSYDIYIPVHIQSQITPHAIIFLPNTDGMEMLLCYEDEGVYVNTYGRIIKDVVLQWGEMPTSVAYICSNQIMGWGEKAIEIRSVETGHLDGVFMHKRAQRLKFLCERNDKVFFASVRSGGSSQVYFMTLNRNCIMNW
Experiment [12] deals with Interleukin-1 receptor-associated kinase 1 (Homo sapiens, UniProt P51617). It is filed as functional.
Sequence of Interleukin-1 receptor-associated kinase 1 (P51617 whole entry): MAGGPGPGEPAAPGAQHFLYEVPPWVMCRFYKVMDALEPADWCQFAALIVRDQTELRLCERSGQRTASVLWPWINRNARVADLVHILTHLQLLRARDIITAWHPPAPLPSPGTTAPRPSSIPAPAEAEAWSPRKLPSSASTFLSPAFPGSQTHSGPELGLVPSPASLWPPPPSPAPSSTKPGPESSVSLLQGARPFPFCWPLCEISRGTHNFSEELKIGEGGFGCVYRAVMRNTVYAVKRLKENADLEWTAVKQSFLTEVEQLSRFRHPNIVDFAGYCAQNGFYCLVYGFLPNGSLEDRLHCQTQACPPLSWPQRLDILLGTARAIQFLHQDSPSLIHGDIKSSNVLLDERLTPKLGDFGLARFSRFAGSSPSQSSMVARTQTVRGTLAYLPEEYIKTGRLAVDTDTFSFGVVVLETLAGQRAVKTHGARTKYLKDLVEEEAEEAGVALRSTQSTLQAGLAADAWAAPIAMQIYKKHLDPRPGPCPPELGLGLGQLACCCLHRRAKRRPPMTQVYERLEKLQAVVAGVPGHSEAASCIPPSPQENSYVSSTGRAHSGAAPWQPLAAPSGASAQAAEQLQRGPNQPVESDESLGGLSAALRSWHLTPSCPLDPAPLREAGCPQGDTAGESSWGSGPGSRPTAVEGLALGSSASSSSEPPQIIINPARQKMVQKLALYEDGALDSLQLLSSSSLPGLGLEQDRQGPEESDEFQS
Experiment [13] has as its target Serine/threonine-protein kinase BRSK1 (Homo sapiens, UniProt Q8TDC3). It is filed as functional.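 Also: measured within a kinome-wide kinase panel, with the target listed as KIAA1811.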
Experiment [14] can be described thus: Luminescence-based dose response cell-based high throughput screening assay for cytotoxic compounds using the IEC-6 intestinal epithelial cell line. [Related pubchem assays: 1858 (Summary AID.), 1825 (Counterscreen.), 1907 (Confirmation screen.)]. It is filed as functional.
The target of experiment [15] is Kappa-type opioid receptor (Homo sapiens, UniProt P41145). It is filed as functional.
The target of experiment [16] is Alkaline phosphatase, placental type (Homo sapiens, UniProt P05187). The experiment can be described thus: PLAP enzyme inhibitors, confirmation, biochemical, luminescence (AID 1512). The experiment is classed as functional.

Sequence of Eukaryotic translation initiation factor 4E (P63073 whole entry): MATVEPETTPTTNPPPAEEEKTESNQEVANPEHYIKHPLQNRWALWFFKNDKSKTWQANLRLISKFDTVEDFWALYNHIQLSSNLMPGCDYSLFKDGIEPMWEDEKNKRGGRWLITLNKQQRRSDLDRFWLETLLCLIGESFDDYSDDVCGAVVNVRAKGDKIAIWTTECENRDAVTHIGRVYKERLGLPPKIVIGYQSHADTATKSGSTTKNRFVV
Sequence of Peroxisome proliferator-activated receptor gamma/Nuclear receptor coactivator 1 (P37231 whole entry): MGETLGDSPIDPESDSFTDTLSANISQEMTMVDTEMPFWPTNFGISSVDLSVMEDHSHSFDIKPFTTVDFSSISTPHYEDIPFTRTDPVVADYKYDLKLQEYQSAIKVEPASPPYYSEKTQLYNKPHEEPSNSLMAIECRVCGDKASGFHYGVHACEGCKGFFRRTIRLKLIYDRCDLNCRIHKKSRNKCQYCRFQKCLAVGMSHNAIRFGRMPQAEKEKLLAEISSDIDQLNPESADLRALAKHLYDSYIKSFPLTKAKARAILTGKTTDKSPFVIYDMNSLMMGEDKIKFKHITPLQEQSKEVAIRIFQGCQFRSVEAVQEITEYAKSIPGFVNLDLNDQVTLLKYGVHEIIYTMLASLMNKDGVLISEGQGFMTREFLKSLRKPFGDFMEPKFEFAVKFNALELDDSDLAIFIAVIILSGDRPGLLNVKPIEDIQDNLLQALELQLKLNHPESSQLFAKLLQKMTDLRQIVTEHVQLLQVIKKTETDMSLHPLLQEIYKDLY
Sequence of Peroxisome proliferator-activated receptor gamma/Nuclear receptor coactivator 1 (Q15788 whole entry, further chain): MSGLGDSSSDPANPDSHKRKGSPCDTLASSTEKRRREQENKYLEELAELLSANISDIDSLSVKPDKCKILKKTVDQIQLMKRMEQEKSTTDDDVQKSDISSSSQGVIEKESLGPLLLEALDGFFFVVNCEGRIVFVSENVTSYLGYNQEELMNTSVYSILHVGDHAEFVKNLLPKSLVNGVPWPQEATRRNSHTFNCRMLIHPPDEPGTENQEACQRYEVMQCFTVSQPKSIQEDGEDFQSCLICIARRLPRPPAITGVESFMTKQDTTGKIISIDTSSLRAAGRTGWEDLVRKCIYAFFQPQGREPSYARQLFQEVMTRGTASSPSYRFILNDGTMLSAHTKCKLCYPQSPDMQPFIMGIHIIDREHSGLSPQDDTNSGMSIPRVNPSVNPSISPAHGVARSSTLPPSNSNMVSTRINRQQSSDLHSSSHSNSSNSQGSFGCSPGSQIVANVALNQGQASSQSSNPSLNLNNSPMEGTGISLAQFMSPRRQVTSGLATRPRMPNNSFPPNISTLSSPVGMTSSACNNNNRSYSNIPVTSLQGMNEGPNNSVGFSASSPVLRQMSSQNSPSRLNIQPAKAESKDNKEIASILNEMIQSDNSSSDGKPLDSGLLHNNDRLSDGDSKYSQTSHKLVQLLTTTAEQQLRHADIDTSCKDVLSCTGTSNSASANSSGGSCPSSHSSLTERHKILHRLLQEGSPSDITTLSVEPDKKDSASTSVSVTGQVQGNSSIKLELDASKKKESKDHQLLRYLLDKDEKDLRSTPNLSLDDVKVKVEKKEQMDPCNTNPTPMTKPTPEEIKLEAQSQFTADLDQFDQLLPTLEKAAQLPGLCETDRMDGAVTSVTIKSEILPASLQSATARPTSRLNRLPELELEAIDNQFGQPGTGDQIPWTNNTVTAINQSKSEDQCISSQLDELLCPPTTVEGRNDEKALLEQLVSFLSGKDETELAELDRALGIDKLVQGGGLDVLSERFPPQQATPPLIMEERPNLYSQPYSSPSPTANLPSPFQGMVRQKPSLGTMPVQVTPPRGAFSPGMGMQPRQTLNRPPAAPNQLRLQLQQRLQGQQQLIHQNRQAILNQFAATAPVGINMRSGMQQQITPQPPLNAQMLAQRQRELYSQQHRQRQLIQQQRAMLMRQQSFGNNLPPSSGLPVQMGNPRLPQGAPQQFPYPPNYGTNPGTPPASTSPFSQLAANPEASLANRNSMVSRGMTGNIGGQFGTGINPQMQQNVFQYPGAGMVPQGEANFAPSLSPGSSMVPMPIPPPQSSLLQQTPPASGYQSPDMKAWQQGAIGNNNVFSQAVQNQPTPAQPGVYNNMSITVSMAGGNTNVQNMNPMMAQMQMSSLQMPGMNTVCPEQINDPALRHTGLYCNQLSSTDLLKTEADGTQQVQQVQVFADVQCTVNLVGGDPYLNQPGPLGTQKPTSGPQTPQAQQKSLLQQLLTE
Sequence of Serine/threonine-protein kinase PAK 1 (Q13153 whole entry): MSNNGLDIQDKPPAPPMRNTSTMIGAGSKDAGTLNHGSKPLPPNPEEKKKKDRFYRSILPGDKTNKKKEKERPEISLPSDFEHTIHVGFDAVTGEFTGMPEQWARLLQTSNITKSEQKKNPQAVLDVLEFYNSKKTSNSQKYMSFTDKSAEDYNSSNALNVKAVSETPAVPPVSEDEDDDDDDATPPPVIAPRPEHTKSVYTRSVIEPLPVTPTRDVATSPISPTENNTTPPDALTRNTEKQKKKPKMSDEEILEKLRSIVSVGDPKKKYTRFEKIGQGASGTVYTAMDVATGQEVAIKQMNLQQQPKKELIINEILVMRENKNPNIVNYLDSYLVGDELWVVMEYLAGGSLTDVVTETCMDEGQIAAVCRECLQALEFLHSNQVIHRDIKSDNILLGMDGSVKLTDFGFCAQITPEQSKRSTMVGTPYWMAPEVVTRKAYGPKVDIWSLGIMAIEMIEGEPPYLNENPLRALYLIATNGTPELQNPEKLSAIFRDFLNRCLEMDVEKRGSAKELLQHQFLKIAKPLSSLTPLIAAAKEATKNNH

Broadly, the EC50 is the concentration needed to bring the measured effect to its halfway point. Turning to `O=C1C(Cl)=C(NCc2cccnc2)C(=O)c2ccccc21`, the EC50 at Hexokinase-1 is 30.8 µM (inactive).

One may read the IC50 as the midpoint of a concentration-inhibition curve. For the compound `CN(C)c1ncc(C2=C(Cl)C(=O)C(N3CCCC3)=C(Cl)C2=O)s1`, the values for the EC50 in experiment [1] and in experiment [2] were > 79.4 µM (not active) and > 120 µM (not active), respectively. In experiment [3], the IC50 is > 64 µM (inactive).

As a reminder, the AC50 is the midpoint of the concentration-response curve, whichever way the signal moves. As for `O=C1C(O)=C/C(=N\c2ccccc2O)c2ccccc21`, the IC50 in the experiment on HEK293 is > 20 µM (inactive). Further, in experiment [4], the AC50 is 2.39 µM (active).

Broadly, the Ki is the dissociation constant of the complex between target and ligand, obtained from inhibition or displacement. Turning to `O=C1NC(=S)SC1=C1C(=O)Nc2ccc(Br)cc21`, the Ki was 1 µM (active) in experiment [5]; > 1.26 µM (inactive) in [6]; 0.631 µM (active) in [7]; > 10 µM (inactive) in experiment [8]; > 5.01 µM (inactive) in experiment [9]; > 2 µM (inactive) in experiment [10]. Moreover, the Ki was > 5.01 µM (inactive) at Insulin receptor; > 7.94 µM (inactive) in experiment [11]; > 3.16 µM (inactive) at Ephrin type-A receptor 2; > 7.94 µM (inactive) at Misshapen-like kinase 1; > 7.94 µM (inactive) in [12]; > 10 µM (inactive) in experiment [13].

With `Cc1ccc(Nc2cc(C)nn2-c2nc(C)cc(O)n2)cc1`, the IC50 is 0.546 µM (active) in experiment [14], 0.747 µM (active) in experiment [15] and > 100 µM (inactive) in [16].
